This note sets out measurements from ChEMBL document CHEMBL5715954, “Silencing c-Myc translation as a therapeutic strategy through targeting PI3Kδ and CK1ε in hematological malignancies” (Blood, 2017).

Common to all, as to set-up: scale not given: the % may be the effect or the level left
For assay [1], the target named is T1, Serine/threonine-protein kinase Nek3 (Homo sapiens) (UniProt P51956).
T1 sequence (whole entry): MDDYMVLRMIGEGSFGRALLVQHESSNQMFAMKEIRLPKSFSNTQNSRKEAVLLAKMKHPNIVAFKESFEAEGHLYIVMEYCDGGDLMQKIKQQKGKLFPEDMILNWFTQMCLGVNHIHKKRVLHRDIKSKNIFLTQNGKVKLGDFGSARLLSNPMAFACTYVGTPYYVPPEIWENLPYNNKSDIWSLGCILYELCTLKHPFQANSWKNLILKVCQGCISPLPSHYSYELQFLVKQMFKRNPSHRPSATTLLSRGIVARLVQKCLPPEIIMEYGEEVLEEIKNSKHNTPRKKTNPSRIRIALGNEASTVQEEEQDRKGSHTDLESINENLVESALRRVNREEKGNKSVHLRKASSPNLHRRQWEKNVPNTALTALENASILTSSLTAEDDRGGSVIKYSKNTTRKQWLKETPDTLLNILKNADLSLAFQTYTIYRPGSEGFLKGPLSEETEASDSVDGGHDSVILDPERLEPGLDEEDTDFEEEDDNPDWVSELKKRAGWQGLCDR
Description: Inhibition of human NEK3 assessed as enzyme activity at 1 uM using myelin basic protein as substrate preincubated for 20 mins followed by [gamma-33P]-ATP addition and measured after 120 mins by radiometric Hot-SpotSM Kinase assay relative to control.

For assay [2], the target named is T2, Serine/threonine-protein kinase Nek1 (Homo sapiens) (UniProt Q96PY6).
T2 sequence (whole entry): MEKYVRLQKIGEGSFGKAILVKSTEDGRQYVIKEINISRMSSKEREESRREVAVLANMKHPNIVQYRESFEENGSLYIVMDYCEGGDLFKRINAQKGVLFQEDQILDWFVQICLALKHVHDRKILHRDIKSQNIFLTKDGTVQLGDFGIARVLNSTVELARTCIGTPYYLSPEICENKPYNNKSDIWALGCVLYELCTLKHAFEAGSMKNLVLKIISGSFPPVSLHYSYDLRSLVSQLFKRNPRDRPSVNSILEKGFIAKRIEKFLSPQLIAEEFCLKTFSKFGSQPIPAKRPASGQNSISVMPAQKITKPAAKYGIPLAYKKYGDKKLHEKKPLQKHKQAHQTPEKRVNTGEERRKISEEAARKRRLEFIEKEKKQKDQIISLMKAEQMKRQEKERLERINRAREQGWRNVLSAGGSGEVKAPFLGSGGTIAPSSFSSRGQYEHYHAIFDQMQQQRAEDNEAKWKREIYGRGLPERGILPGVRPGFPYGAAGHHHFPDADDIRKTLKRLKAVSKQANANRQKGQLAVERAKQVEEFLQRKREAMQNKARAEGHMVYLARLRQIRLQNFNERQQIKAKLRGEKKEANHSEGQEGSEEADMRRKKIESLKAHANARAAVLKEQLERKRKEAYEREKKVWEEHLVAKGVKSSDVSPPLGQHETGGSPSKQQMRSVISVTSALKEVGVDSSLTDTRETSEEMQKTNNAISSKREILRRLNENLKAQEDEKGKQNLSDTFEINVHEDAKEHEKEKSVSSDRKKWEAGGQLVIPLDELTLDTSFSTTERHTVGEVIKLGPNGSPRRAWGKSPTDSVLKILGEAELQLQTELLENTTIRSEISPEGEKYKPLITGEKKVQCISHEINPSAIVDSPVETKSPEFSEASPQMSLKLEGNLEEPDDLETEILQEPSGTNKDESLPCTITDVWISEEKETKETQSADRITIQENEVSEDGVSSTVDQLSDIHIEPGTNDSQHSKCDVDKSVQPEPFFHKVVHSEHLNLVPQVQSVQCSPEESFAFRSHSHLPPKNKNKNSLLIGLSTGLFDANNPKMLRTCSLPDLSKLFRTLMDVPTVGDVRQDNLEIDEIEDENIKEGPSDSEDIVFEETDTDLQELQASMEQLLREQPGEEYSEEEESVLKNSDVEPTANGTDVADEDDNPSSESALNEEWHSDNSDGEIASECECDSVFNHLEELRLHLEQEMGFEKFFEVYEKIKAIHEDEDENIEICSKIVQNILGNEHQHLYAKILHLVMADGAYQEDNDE
Description: Inhibition of human NEK1 assessed as enzyme activity at 1 uM using myelin basic protein as substrate preincubated for 20 mins followed by [gamma-33P]-ATP addition and measured after 120 mins by radiometric Hot-SpotSM Kinase assay relative to control.

For assay [3], the target named is Mitogen-activated protein kinase kinase kinase 8 (Homo sapiens) (UniProt P41279). In words: Inhibition of human COT1 assessed as enzyme activity at 1 uM using MEK1 (K97R) as substrate preincubated for 20 mins followed by [gamma-33P]-ATP addition and measured after 120 mins by radiometric Hot-SpotSM Kinase assay relative to control.
Assay [4] concerns the target G protein-coupled receptor kinase 4 (Homo sapiens) (UniProt P32298). Description: Inhibition of human GRK4 assessed as enzyme activity at 1 uM using casein as substrate preincubated for 20 mins followed by [gamma-33P]-ATP addition and measured after 120 mins by radiometric Hot-SpotSM Kinase assay relative to control.
Assay [5] deals with Proto-oncogene tyrosine-protein kinase ROS (Homo sapiens) (UniProt P08922). Description: Inhibition of human ROS assessed as enzyme activity at 1 uM using KKKSPGEYVNIEFG as substrate preincubated for 20 mins followed by [gamma-33P]-ATP addition and measured after 120 mins by radiometric Hot-SpotSM Kinase assay relative to control.
Assay [6] concerns the target Interleukin-1 receptor-associated kinase 1 (Homo sapiens) (UniProt P51617). In words: Inhibition of human IRAK1 assessed as enzyme activity at 1 uM using myelin basic protein as substrate preincubated for 20 mins followed by [gamma-33P]-ATP addition and measured after 120 mins by radiometric Hot-SpotSM Kinase assay relative to control.
In assay [7] the target is T3, Dual specificity mitogen-activated protein kinase kinase 5 (Homo sapiens) (UniProt Q13163).
T3 sequence (whole entry): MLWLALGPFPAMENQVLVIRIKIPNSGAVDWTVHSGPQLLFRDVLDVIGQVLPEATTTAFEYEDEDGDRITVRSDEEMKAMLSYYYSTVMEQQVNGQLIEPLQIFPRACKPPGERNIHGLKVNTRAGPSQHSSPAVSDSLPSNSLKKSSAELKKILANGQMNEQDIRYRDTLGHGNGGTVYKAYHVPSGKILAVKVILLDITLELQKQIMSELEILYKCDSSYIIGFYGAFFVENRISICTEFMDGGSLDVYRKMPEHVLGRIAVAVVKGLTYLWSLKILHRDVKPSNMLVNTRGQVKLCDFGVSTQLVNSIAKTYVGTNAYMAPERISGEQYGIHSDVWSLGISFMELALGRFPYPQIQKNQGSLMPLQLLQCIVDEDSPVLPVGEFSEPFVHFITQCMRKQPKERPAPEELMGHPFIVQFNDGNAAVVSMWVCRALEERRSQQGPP
In words: Inhibition of human MEK5 assessed as enzyme activity at 1 uM using ERK5 (K84R) as substrate preincubated for 20 mins followed by [gamma-33P]-ATP addition and measured after 120 mins by radiometric Hot-SpotSM Kinase assay relative to control.

Proto-oncogene tyrosine-protein kinase ROS (Homo sapiens), sequence (P08922 whole entry): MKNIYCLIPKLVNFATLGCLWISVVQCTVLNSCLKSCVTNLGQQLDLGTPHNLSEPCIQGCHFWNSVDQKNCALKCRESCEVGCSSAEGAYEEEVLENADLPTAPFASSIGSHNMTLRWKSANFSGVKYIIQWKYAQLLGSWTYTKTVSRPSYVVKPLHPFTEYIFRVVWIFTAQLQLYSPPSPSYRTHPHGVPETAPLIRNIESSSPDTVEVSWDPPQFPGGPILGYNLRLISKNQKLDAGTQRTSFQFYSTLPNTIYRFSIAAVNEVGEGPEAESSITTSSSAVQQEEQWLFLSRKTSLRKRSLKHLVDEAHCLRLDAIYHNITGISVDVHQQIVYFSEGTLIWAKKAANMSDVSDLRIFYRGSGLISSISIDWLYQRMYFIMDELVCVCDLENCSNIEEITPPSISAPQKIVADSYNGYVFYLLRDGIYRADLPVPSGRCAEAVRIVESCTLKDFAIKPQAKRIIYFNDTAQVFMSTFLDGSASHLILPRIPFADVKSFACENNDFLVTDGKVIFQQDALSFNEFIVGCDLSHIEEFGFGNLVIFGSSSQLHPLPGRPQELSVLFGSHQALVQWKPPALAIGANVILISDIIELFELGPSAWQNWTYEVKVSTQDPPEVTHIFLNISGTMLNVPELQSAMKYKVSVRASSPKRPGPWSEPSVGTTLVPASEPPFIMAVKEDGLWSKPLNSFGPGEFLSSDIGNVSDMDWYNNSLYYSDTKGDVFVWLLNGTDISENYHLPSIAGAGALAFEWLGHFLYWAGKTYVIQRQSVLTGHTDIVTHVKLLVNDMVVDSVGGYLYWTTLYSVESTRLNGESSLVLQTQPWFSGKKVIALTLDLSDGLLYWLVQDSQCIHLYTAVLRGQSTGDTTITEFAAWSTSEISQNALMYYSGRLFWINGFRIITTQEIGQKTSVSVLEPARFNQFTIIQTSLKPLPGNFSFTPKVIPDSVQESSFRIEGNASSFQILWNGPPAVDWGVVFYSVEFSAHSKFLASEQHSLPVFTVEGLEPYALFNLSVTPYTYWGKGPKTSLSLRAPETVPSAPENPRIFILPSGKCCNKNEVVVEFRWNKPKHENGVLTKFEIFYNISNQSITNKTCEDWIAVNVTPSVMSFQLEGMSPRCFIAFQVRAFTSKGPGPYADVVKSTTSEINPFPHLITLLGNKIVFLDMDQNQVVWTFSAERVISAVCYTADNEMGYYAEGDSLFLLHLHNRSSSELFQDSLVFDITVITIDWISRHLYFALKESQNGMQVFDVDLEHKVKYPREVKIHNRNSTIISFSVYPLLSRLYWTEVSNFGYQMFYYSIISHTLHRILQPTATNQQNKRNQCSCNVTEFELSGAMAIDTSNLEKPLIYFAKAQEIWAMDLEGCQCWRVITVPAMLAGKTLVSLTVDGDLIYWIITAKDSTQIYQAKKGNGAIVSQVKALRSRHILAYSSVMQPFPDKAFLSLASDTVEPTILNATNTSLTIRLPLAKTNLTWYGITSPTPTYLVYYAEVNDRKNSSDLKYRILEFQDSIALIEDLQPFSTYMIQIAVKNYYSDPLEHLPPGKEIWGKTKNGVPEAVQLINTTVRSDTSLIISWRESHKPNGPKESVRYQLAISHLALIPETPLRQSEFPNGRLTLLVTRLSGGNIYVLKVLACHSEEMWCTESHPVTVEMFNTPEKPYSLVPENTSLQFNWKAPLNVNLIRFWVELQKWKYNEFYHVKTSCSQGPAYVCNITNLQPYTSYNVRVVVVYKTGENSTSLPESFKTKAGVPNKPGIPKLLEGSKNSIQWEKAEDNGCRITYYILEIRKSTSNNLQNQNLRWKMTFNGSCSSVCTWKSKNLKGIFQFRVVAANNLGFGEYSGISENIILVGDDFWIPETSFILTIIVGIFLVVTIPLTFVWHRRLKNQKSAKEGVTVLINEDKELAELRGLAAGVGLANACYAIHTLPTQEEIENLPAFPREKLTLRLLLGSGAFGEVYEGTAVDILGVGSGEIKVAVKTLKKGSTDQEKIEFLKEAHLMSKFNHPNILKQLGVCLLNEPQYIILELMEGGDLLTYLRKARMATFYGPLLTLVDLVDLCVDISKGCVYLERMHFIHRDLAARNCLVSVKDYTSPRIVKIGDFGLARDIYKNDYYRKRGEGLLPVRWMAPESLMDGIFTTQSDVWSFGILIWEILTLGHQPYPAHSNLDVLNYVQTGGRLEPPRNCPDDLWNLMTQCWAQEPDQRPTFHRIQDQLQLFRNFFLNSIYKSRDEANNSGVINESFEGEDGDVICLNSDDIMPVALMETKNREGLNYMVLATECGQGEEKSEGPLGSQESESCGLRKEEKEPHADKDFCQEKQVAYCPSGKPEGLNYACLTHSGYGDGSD
G protein-coupled receptor kinase 4 (Homo sapiens), sequence (P32298 whole entry, looked up): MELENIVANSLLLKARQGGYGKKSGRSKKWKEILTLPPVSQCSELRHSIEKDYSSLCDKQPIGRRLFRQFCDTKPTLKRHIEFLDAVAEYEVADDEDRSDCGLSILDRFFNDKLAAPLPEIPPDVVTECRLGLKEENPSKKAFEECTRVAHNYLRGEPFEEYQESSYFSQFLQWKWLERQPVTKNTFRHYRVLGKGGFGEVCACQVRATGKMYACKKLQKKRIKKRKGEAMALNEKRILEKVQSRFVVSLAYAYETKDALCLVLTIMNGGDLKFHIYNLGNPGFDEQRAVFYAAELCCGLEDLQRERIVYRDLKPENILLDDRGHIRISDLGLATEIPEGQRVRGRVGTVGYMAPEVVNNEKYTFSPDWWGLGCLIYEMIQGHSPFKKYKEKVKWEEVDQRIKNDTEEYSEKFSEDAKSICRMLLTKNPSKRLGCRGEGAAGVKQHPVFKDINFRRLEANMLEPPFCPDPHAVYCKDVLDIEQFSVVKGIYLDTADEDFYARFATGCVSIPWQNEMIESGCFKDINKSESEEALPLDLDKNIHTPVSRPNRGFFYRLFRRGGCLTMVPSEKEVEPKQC
Interleukin-1 receptor-associated kinase 1 (Homo sapiens), sequence (P51617 whole entry, looked up): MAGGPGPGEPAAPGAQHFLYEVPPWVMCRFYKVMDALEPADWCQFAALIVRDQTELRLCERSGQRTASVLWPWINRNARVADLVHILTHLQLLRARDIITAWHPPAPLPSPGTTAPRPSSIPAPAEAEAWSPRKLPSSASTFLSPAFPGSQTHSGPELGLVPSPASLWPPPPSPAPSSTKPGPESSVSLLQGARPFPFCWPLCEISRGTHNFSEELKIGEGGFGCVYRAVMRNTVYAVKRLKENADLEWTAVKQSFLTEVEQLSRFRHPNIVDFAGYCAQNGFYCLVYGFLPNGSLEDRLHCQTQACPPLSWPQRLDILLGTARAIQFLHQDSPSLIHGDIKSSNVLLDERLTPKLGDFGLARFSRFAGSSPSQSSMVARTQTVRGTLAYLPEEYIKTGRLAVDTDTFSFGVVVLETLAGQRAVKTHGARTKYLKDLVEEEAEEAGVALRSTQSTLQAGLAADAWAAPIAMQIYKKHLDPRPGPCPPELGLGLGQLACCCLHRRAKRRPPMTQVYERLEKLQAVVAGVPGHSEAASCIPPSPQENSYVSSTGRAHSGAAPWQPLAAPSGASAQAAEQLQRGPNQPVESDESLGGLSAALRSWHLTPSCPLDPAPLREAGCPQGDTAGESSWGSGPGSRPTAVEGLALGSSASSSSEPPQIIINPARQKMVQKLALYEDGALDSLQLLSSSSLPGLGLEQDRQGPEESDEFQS
Mitogen-activated protein kinase kinase kinase 8 (Homo sapiens), sequence (P41279 whole entry): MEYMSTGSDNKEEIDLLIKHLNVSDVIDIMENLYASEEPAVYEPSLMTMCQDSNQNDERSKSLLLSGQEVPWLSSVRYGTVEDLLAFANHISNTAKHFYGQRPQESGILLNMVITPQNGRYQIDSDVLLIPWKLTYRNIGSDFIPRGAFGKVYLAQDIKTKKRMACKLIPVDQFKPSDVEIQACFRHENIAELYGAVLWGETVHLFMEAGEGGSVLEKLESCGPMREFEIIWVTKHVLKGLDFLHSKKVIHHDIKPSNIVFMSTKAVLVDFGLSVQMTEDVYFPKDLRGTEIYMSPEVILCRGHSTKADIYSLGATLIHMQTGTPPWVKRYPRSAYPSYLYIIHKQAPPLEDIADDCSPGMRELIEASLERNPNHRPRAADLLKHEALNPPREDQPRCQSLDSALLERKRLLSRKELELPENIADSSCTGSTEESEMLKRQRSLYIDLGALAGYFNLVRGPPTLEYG

Take `C[C@H](Nc1ncnc2nc[nH]c12)c1cc2cccc(Cl)c2c(=O)n1-c1ccccc1`: the Activity was 98.5% in assay [1]; 87% in assay [2]; 96.8% in assay [3]; 92.2% in assay [4]; 86.7% in assay [5]; 102% in assay [6]. Further, in assay [7], the Activity worked out at 105%.
For the compound `CC[C@H](Nc1ncnc2[nH]cnc12)c1nc2cccc(F)c2c(=O)n1-c1ccccc1`, the Activity stood at 93.9% in assay [1]; 93.5% in assay [2]; 101% in assay [3]; 93.2% in assay [4]; 98% in assay [5]; 106% in assay [6]. In addition, the Activity in assay [7] was found to be 104%.
Consider `CC(C)Oc1ccc(-c2nn([C@@H](C)c3oc4ccc(F)cc4c(=O)c3-c3cccc(F)c3)c3ncnc(N)c23)cc1F` [UMBRALISIB], for which the Activity in assay [1] turned out to be 101%; in assay [2] it was 105%; in assay [3] it was 98.2%; in assay [4] it was 95.1%; in assay [5], 94.5%; in assay [6], 105%. For the same compound, in assay [7], the Activity was found to be 102%.
